According to ChEMBL document CHEMBL4610099, “Galtonosides A-E: Antiproliferative and Antiplasmodial Cholestane Glycosides from Galtonia regalis” (J Nat Prod, 2020):
Blank lines part the entries; values can stand above or below the compound they belong to. The source made the active and inactive calls. No cut-off for these calls is given here.

Columns and labels:
[1] = test system: Erythrocyte; assay: Hemolytic activity against human erythrocytes infected with ring stage Plasmodium falciparum Dd2 assessed as morphological changes at 11 uM up to 72 hrs by Giemsa-staining based light microscopic analysis; assay type: ADME, cell-based
[2] = test system: A2780; assay: Antiproliferative activity against human A2780 cells assessed as reduction in cell viability after 2 days hrs by AlamarBlue assay; assay type: functional, cell-based; conditions: A2780, 48 h
[3] = test system: Plasmodium falciparum; assay: Antiplasmodial activity against ring stage Plasmodium falciparum Dd2 assessed as reduction in parasite growth after 72 hrs by SYBR Green 1 staining based assay; assay type: functional, organism-based; conditions: Dd2, 72 h
[4] = test system: Erythrocyte; assay: Hemolytic activity against human erythrocytes infected with ring stage Plasmodium falciparum Dd2 assessed as morphological changes at IC50 concentration up to 72 hrs; assay type: ADME, cell-based
[5] = test system: Plasmodium falciparum; assay: Antiplasmodial activity against ring stage Plasmodium falciparum Dd2 infected in human erythrocytes assessed as reduction in trophozoites formation at 11 uM up to 72 hrs by Giemsa-staining based light microscopic analysis; assay type: functional, organism-based
[6] = test system: Erythrocyte; assay: Hemolytic activity against human erythrocytes infected with ring stage Plasmodium falciparum Dd2 assessed as reduction in cell viability at 11 uM up to 72 hrs by Giemsa-staining based light microscopic analysis
[7] = test system: Erythrocyte; assay: Hemolytic activity against human erythrocytes assessed as morphological changes at IC50 concentration up to 72 hrs; assay type: ADME, cell-based
[8] = test system: Plasmodium falciparum; assay: Antiplasmodial activity against ring stage Plasmodium falciparum Dd2 infected in human erythrocytes assessed as reduction in trophozoites formation at 3 uM up to 72 hrs by Giemsa-staining based light microscopic analysis; assay type: functional, organism-based
[9] = test system: Erythrocyte; assay: Hemolytic activity against human erythrocytes infected with ring stage Plasmodium falciparum Dd2 assessed as reduction in cell viability at 3 uM up to 72 hrs by Giemsa-staining based light microscopic analysis
[10] = test system: Erythrocyte; assay: Hemolytic activity against human erythrocytes infected with ring stage Plasmodium falciparum Dd2 assessed as morphological changes at 3 uM up to 72 hrs by Giemsa-staining based light microscopic analysis; assay type: ADME, cell-based
[11] = test system: Erythrocyte; assay: Hemolytic activity against human erythrocytes infected with ring stage Plasmodium falciparum Dd2 assessed as reduction in cell viability at 6 uM up to 72 hrs by Giemsa-staining based light microscopic analysis
[12] = test system: Plasmodium falciparum; assay: Antiplasmodial activity against ring stage Plasmodium falciparum Dd2 infected in human erythrocytes assessed as reduction in trophozoites formation at 6 uM up to 72 hrs by Giemsa-staining based light microscopic analysis; assay type: functional, organism-based
[13] = test system: Erythrocyte; assay: Hemolytic activity against human erythrocytes infected with ring stage Plasmodium falciparum Dd2 assessed as morphological changes at 6 uM up to 72 hrs by Giemsa-staining based light microscopic analysis; assay type: ADME, cell-based

IC50 [2]: 100 nM
SMILES: COc1cc(C(=O)O[C@H]2[C@H](O[C@@H]3[C@@H](OC(C)=O)[C@H](O[C@H]4C[C@H]5[C@@H]6CC=C7C[C@@H](O)CC[C@]7(C)[C@H]6CC[C@]5(C)[C@H]4[C@H](C)C(=O)CCC(C)C)OC[C@@H]3O)OC[C@@H](O)[C@@H]2O)cc(OC)c1OC
Activity [1]: Non-Toxic
IC50 [3]: 610 nM
Activity [4]: Non-Toxic
Activity [5]: Active
Activity [6]: Non-Toxic
Activity [7]: Non-Toxic

IC50 [2]: 140 nM
SMILES: COc1ccc(C(=O)O[C@H]2[C@H](O[C@H]3C[C@H]4[C@@H]5CC=C6C[C@@H](O)CC[C@]6(C)[C@H]5CC[C@]4(C)[C@@]3(O)[C@H](C)C(=O)CCC(C)C)OC[C@H](O)[C@@H]2O)cc1OC
Activity [8]: Active
IC50 [3]: 210 nM
Activity [4]: Non-Toxic
Activity [9]: Non-Toxic
Activity [10]: Non-Toxic
Activity [7]: Non-Toxic

SMILES: C[C@@H]1CC[C@H]2[C@@H](C)C(=O)O[C@@H]3O[C@@]4(C)CC[C@@H]1[C@]32OO4 [ARTEMISININ]
IC50 [3]: 6.5 nM

IC50 [2]: 100 nM
SMILES: COc1ccc(C(=O)O[C@H]2[C@H](O[C@@H]3[C@@H](OC(C)=O)[C@H](O[C@H]4C[C@H]5[C@@H]6CC=C7C[C@@H](O)CC[C@]7(C)[C@H]6CC[C@]5(C)[C@@]4(O)[C@H](C)C(=O)CCC(C)C)OC[C@@H]3O)OC[C@@H](O)[C@@H]2O)cc1OC
IC50 [3]: 1510 nM
Activity [4]: Non-Toxic
Activity [7]: Non-Toxic

IC50 [2]: 100 nM
SMILES: COc1ccc(C(=O)O[C@H]2[C@H](O[C@@H]3[C@@H](OC(C)=O)[C@H](O[C@H]4C[C@H]5[C@@H]6CC=C7C[C@@H](O)CC[C@]7(C)[C@H]6CC[C@]5(C)[C@H]4[C@H](C)C(=O)CCC(C)C)OC[C@@H]3O)OC[C@@H](O)[C@@H]2O)cc1OC
Activity [1]: Non-Toxic
IC50 [3]: 630 nM
Activity [4]: Non-Toxic
Activity [5]: Active
Activity [6]: Non-Toxic
Activity [7]: Non-Toxic

IC50 [2]: 100 nM
SMILES: CC(=O)O[C@H]1[C@H](O[C@H]2C[C@H]3[C@@H]4CC=C5C[C@@H](O)CC[C@]5(C)[C@H]4CC[C@]3(C)[C@@]2(O)[C@H](C)C(=O)CCC(C)C)OC[C@H](O)[C@@H]1O[C@@H]1OC[C@@H](O)[C@H](O)[C@H]1OC(=O)/C=C/c1ccccc1
IC50 [3]: 950 nM
Activity [4]: Non-Toxic
Activity [7]: Non-Toxic

IC50 [2]: 100 nM
SMILES: CC(=O)O[C@H]1[C@H](O[C@H]2C[C@H]3[C@@H]4CC=C5C[C@@H](O)CC[C@]5(C)[C@H]4CC[C@]3(C)[C@H]2[C@H](C)C(=O)CCC(C)C)OC[C@H](O)[C@@H]1O[C@@H]1OC[C@@H](O)[C@H](O)[C@H]1OC(=O)/C=C/c1ccccc1
IC50 [3]: 420 nM
Activity [11]: Non-Toxic
Activity [12]: Active
Activity [4]: Non-Toxic
Activity [13]: Non-Toxic
Activity [7]: Non-Toxic

IC50 [2]: 90 nM
SMILES: COc1cc(C(=O)O[C@H]2[C@H](O[C@@H]3[C@@H](OC(C)=O)[C@H](O[C@H]4C[C@H]5[C@@H]6CC=C7C[C@@H](O)CC[C@]7(C)[C@H]6CC[C@]5(C)[C@@]4(O)[C@H](C)C(=O)CCC(C)C)OC[C@@H]3O)OC[C@@H](O)[C@@H]2O)cc(OC)c1OC
Activity [1]: Non-Toxic
IC50 [3]: 560 nM
Activity [4]: Non-Toxic
Activity [5]: Active
Activity [6]: Non-Toxic
Activity [7]: Non-Toxic
